Measurements: US9498483B2, “2,3,5-trisubstituted thiophene compounds and uses thereof” (priority 2010, dated 2016)

Assays:
HCV polymerase = target: T1, HCV polymerase (Hepatitis C virus genotype 1b, UniProt Q9WMX2); assay: Polymerase assay of Biological Example 1 (IC50 values of Table 3); assay type: biochemical; conditions: IC50 values of Table 3, polymerase assay of Biological Example 1; read-out: NS5B-enzyme3
T1 construct: (His)6 (C); made in house; host or cells: XL-1 cells (E. coli, by own knowledge)
Text: A number of assays have been published to assess these activities. A general method that assesses the gross increase of HCV virus in culture was disclosed in U.S. Pat. No. 5,738,985 to Miles et al. In vitro assays have been reported in Ferrari et al. Jnl. of Vir., 73:1649-1654, 1999; Ishii et al., Hepatology, 29:1227-1235, 1999; Lohmann et al., Jnl of Bio. Chem., 274:10807-10815, 1999; and Yamashita et al., Jnl. of Bio. Chem., 273:15479-15486, 1998.
WO 97/12033, filed on Sep. 27, 1996, by Emory University, listing C. Hagedorn and A. Reinoldus as inventors, which claims priority to U.S. Provisional Patent Application Ser. No. 60/004,383, filed on September 1995, described an HCV polymerase assay that can be used to evaluate the activity of the of the compounds described herein. Another HCV polymerase assay has been reported by Bartholomeusz, et al., Hepatitis C Virus (HCV) RNA polymerase assay using cloned HCV non-structural proteins; Antiviral Therapy 1996:1 (Supp 4) 18-24.

[1] = tested on: HCV replicon I389luc-ubi-neo/NS3-3′/ET in ET (Huh-lucubineo-ET) cells; assay: Replicon assay (Biological Example 2), luciferase readout; assay type: cell-based; conditions: Hepatitis C virus
Experimental: A cell line, ET (Huh-lucubineo-ET) was used for screening of compounds for inhibiting HCV RNA dependent RNA polymerase. The ET cell line was stably transfected with RNA transcripts harboring a I389luc-ubi-neo/NS3-3′/ET; replicon with firefly luciferase-ubiquitin-neomycin phosphotransferase fusion protein and EMCV-IRES driven NS3-5B polyprotein containing the cell culture adaptive mutations (E1202G; T12801; K1846T) (Krieger at al, 2001 and unpublished). The ET cells were grown in DMEM (Dulbeco's Modified Eagle's Medium), supplemented with 10% fetal calf serum, 2 mM Glutamine, Penicillin (100 IU/mL)/Streptomycin (100 μg/mL), 1× nonessential amino acids, and 250 μg/mL G418 (“Geneticin”). Reagents were all available through Life Technologies (Bethesda, Md.). The cells were plated at 0.5-1.0×10^4 cells/well in the 96 well plates and incubated for 24 hrs before adding test compound. The compounds were added to the cells to achieve a final concentration of 0.1 nM to 50 μM and a final DMSO (dimethylsulfoxide) concentration of 0.5%. Luciferase activity was measured 48 hours later by adding a lysis buffer and the substrate (Catalog number Glo-lysis buffer E2661 and Bright-Glo luciferase system E2620 Promega, Madison, Wis.). Cells should not be too confluent during the assay. Percent inhibition of replication data was plotted relative to no compound control. To determine the EC50 (effective concentration at which 50% of the maximum inhibition was observed), a 10 point, 3-fold serial dilution for each compound was used, which spans a concentration range of […]. EC50 values were calculated by fitting % inhibition at each concentration to the following equation: % inhibition=100%/[(EC50/[I])^b+1] where b was Hill's coefficient.
In other aspects the EC50 was equal to or less than 10 μM. In still other aspects the EC50 was equal to or less than 1 μM.

[2] = ET cells, luciferase activity 48 hours after compound

| SMILES | IC50 (HCV polymerase) [µM] | IC50 [1, 2] [µM] | IC50 ([1]; between 100 nM and 5.0 uM) [µM] |
| --- | --- | --- | --- |
| NCC1CCN(c2ccc(S(=O)(=O)N3CC(=O)N(c4cc(-c5ccccc5)sc4C(=O)O)[C@H](C4CCCCC4)C3)cn2)CC1 [Compound 143, 3-[(R)-4-(4-Aminomethyl-3,4,5,6-tetrahydro-2H-[1,2′]bipyridinyl-5′-sulfonyl)-2-cyclohexyl-6-oxo-piperazin-1-yl]-5-phenyl-thiophene-2-carboxylic acid] | 0.0019 | ≤ 0.1 | – |
| CN(C)C1CCCN(c2ccc(S(=O)(=O)N3CC(=O)N(c4cc(-c5ccccc5)sc4C(=O)O)[C@H](C4CCCCC4)C3)cn2)C1 (stereo partly drawn) [Compound 155, 3-[(R)-2-Cyclohexyl-4-(3-dimethylamino-3,4,5,6-tetrahydro-2H-[1,2′]bipyridinyl-5′-sulfonyl)-6-oxo-piperazin-1-yl]-5-phenyl-thiophene-2-carboxylic acid] | 0.003 | ≤ 0.1 | – |
| O=C(O)c1sc(-c2ccccc2)cc1N1C(=O)CN(S(=O)(=O)C2CCCCC2)CC1C1CCCCC1 (centres unmarked) [Compound 46, 3-(4-Cyclohexanesulfonyl-2-cyclohexyl-6-oxo-piperazin-1-yl)-5-phenyl-thiophene-2-carboxylic acid] | 0.063 | – | 0.1 to 5 |
| O=C(O)c1sc(-c2ccc(F)cc2)cc1N1C(=O)CN(S(=O)(=O)c2ccc(N3CC[C@H](F)C3)nc2)C[C@H]1C1CCCCC1 [Compound 287, 3-{(R)-2-Cyclohexyl-4-[6-((S)-3-fluoro-pyrrolidin-1-yl)-pyridine-3-sulfonyl]-6-oxo-piperazin-1-yl}-5-(4-fluoro-phenyl)-thiophene-2-carboxylic acid] | 0.001 | ≤ 0.1 | – |
| CC(C)(C)C#Cc1cc(N2C(=O)CN(S(=O)(=O)c3cccc(F)c3)C[C@H]2C2CCCCC2)c(C(=O)O)s1 [Compound 239, 3-[(R)-2-Cyclohexyl-4-(3-fluoro-benzenesulfonyl)-6-oxo-piperazin-1-yl]-5-(3,3-dimethyl-but-1-ynyl)-thiophene-2-carboxylic acid] | 0.002 | ≤ 0.1 | – |
| CCc1ccc(-c2cc(N3C(=O)CCCC3C3CCCCC3)c(C(=O)O)s2)cc1 (centres unmarked) [Compound 72, 3-(2-Cyclohexyl-6-oxo-piperidin-1-yl)-5-(4-ethyl-phenyl)-thiophene-2-carboxylic acid] | 0.064 | – | 0.1 to 5 |
| C[C@H](O)C[C@H]1OC[C@@H](C2CCCCC2)N(c2cc(C#CC(C)(C)C)sc2C(=O)O)C1=O [Compound 337, 3-[(2R,5R)-5-Cyclohexyl-2-((S)-2-hydroxy-propyl)-3-oxo-morpholin-4-yl]-5-(3,3-dimethyl-but-1-ynyl)-thiophene-2-carboxylic acid] | 0.002 | ≤ 0.1 | – |
| O=C(O)c1sc(-c2ccccc2)cc1N1C(=O)CN(S(=O)(=O)c2ccc(N3CC[C@@H](F)C3)nc2)CC1C1CCCCC1 (stereo partly drawn) [Compound 120, 3-{2-Cyclohexyl-4-[6-((R)-3-fluoro-pyrrolidin-1-yl)-pyridine-3-sulfonyl]-6-oxo-piperazin-1-yl}-5-phenyl-thiophene-2-carboxylic acid] | 0.006 | ≤ 0.1 | – |
| CC(C)(C)C#Cc1cc(N2C(=O)[C@@](C)(CCO)OC[C@H]2C2CCCCC2)c(C(=O)O)s1 [Compound 323, 3-[(2R,5R)-5-Cyclohexyl-2-(2-hydroxy-ethyl)-2-methyl-3-oxo-morpholin-4-yl]-5-(3,3-dimethyl-but-1-ynyl)-thiophene-2-carboxylic acid] | 0.003 | ≤ 0.1 | – |
| CCn1cc(S(=O)(=O)N2CC(=O)N(c3cc(C#CC(C)(C)C)sc3C(=O)O)[C@H](C3CCCCC3)C2)cn1 [Compound 275, 3-[(R)-2-Cyclohexyl-4-(1-ethyl-1H-pyrazole-4-sulfonyl)-6-oxo-piperazin-1-yl]-5-(3,3-dimethyl-but-1-ynyl)-thiophene-2-carboxylic acid] | 0.002 | ≤ 0.1 | – |
| Cc1ccc(-c2cc(N3C(=O)C(C)(O)CCC3C3CCCCC3)c(C(=O)O)s2)cc1 (centres unmarked) [Compound 5, 3-(6-Cyclohexyl-3-hydroxy-3-methyl-2-oxo-piperidin-1-yl)-5-p-tolyl-thiophene-2-carboxylic acid] | 0.052 | ≤ 0.1 | – |
| O=C(O)c1sc(-c2ccccc2)cc1N1C(=O)CN(C(=O)c2ccccc2)C[C@H]1C1CCCCC1 [Compound 16, 3-((R)-4-Benzoyl-2-cyclohexyl-6-oxo-piperazin-1-yl)-5-phenyl-thiophene-2-carboxylic acid] | 0.42 | ≥ 5 | – |
| O=C(O)c1sc(-c2ccccc2)cc1N1C(=O)CN(S(=O)(=O)c2cccc3ccccc23)CC1C1CCCCC1 (centres unmarked) [Compound 110, 3-[2-Cyclohexyl-4-(naphthalene-1-sulfonyl)-6-oxo-piperazin-1-yl]-5-phenyl-thiophene-2-carboxylic acid] | 0.183 | ≥ 5 | – |
| CC(C)(C)C#Cc1cc(N2C(=O)[C@](C)(CCO)OC[C@H]2C2CCCCC2)c(C(=O)O)s1 [Compound 328, 3-[(2S,5R)-5-Cyclohexyl-2-(2-hydroxy-ethyl)-2-methyl-3-oxo-morpholin-4-yl]-5-(3,3-dimethyl-but-1-ynyl)-thiophene-2-carboxylic acid] | 0.006 | ≤ 0.1 | – |
| O=C(O)c1sc(-c2ccccc2)cc1N1C(=O)CN(S(=O)(=O)c2ccc(N3CCCCC3)nc2)C[C@H]1C1CCCCC1 [Compound 179, 3-[(R)-2-Cyclohexyl-6-oxo-4-(3,4,5,6-tetrahydro-2H-[1,2′]bipyridinyl-5′-sulfonyl)-piperazin-1-yl]-5-phenyl-thiophene-2-carboxylic acid] | 0.001 | ≤ 0.1 | – |
| O=C(O)c1sc(-c2ccccc2)cc1N1C(=O)CN(S(=O)(=O)c2ccc(N3CCNCC3)nc2)CC1C1CCCCC1 (centres unmarked) [Compound 88, 3-[2-Cyclohexyl-6-oxo-4-(6-piperazin-1-yl-pyridine-3-sulfonyl)-piperazin-1-yl]-5-phenyl-thiophene-2-carboxylic acid] | 0.00213 | ≤ 0.1 | – |
| Cc1ccc(-c2cc(N3C(=O)CN(S(=O)(=O)c4cnn(C)c4)C[C@H]3C3CCCCC3)c(C(=O)O)s2)cc1 [Compound 295, 3-[(R)-2-Cyclohexyl-4-(1-methyl-1H-pyrazole-4-sulfonyl)-6-oxo-piperazin-1-yl]-5-p-tolyl-thiophene-2-carboxylic acid] | 0.004 | ≤ 0.1 | – |
| CC(C)(C)C#Cc1cc(N2C(=O)CN(S(=O)(=O)c3ccc(N4CCOCC4)nc3)CC2C2CCCCC2)c(C(=O)O)s1 (centres unmarked) [Compound 168, 3-[2-Cyclohexyl-4-(6-morpholin-4-yl-pyridine-3-sulfonyl)-6-oxo-piperazin-1-yl]-5-(3,3-dimethyl-but-1-ynyl)-thiophene-2-carboxylic acid] | 3.82 | ≤ 0.1 | – |
| O=C(N[C@H]1CC(=O)N(c2cc(-c3ccccc3)sc2C(=O)O)[C@H](C2CCCCC2)C1)c1ccccc1 [Compound 24, 3-((2S,4R)-4-Benzoylamino-2-cyclohexyl-6-oxo-piperidin-1-yl)-5-phenyl-thiophene-2-carboxylic acid] | 0.0445 | – | 0.1 to 5 |
| CC(C)(C)C#Cc1cc(N2C(=O)OCCC2C2CCCCC2)c(C(=O)O)s1 (centres unmarked) [Compound 308, 3-(4-Cyclohexyl-2-oxo-[1,3]oxazinan-3-yl)-5-(3,3-dimethyl-but-1-ynyl)-thiophene-2-carboxylic acid] | 0.014 | ≤ 0.1 | – |
| Cc1oc(C)c(S(=O)(=O)N2CC(=O)N(c3cc(-c4ccccc4)sc3C(=O)O)C(C3CCCCC3)C2)c1C(=O)O (centres unmarked) [Compound 33, 4-[4-(2-Carboxy-5-phenyl-thiophen-3-yl)-3-cyclohexyl-5-oxo-piperazine-1-sulfonyl]-2,5-dimethyl-furan-3-carboxylic acid] | 0.038 | ≥ 5 | – |
| CC(O)C1CCC(C2CCCCC2)N(c2cc(C#CC(C)(C)C)sc2C(=O)O)C1=O (centres unmarked) [Compound 316, 3-[6-Cyclohexyl-3-(1-hydroxy-ethyl)-2-oxo-piperidin-1-yl]-5-(3,3-dimethyl-but-1-ynyl)-thiophene-2-carboxylic acid] | 0.003 | ≤ 0.1 | – |
